Test results as given in article doi:10.1101/2025.07.30.667614, “Steric control of signaling bias in the immunometabolic receptor GPR84” (bioRxiv, 2025).
Read-outs that look alike come from different tables or passages of the source.

Legend:
GPR84 [1] = molecular target: T1, GPR84 (Homo sapiens, UniProt Q9NQS5); experiment: CHO-K1-based HitHunter cAMP inhibition assay; type: cell-based; settings: wild type GPR84; for EC50: CHO-K1 cells, forskolin 25 μM, read-out: cAMP pEC50 ± SEM (converted); for Emax: normalised to capric acid (100 μM), read-out: cAMP %Emax ± SEM
Procedure: CHO-K1 cells stably expressing human GPR84 (DiscoverX 95-0158C2) were seeded in 384-well plates at 15,000 cells per well in 20 μL of F12 medium supplemented with 10% fetal bovine serum (FBS), 19 mM HEPES, and 1% penicillin-streptomycin. After overnight incubation at 37 °C and 5% CO2, the medium was removed and replaced with PBS containing 0.1% BSA. Cells were stimulated for 30 min with forskolin (25 μM) and test compounds prepared in Dulbecco’s PBS (DPBS) with 0.1% BSA. Compounds were dissolved in DMSO and diluted appropriately. cAMP levels were quantified using the HitHunter® cAMP Assay for Small Molecules (DiscoverX 90-0075SM2) according to the manufacturer’s protocol. Luminescence was measured 18 h post-assay using a PHERAstar® FS plate reader (BMG Labtech).

GPR84-WT = molecular target: T2, GPR84-WT (Homo sapiens, UniProt Q9NQS5); experiment: BRET β-arrestin-2 recruitment assay, HEK293T cells; type: cell-based; settings: Extended Data Table 4, read-out: β-arrestin-2 pEC50 ± SEM (converted)
T2 construct: FLAG (N); eYFP (C); expressed in transfected cells; host or cells: HEK293T, transient
Procedure: (§1) As a control, cells were transfected with 100:1 ratio of empty plasmid and the appropriate arrestin isoform fused to nano-luciferase. After 24 h, cells were seeded at 50,000 cells per well in poly-D-lysine-coated white 96-well plates and incubated at 37°C overnight. After 24 h, cells were washed twice with Hank’s balanced salt solution (HBSS), pH 7.4, and 10 μl/well of the nano-luciferase substrate coelenterazine-h (Nanolight Technologies) was added to a final concentration of 5 μM. Cells were incubated in the dark for 10 min at 37°C, after which 10 μl/well of the agonist compound was added, and the cells were incubated for another 5 minutes. 15 min after coelenterazine-h addition, reading of emission signals were performed on a PHERAstar FS plate reader (BMG Labtech) at 475 and 535 nm, representing nano-luciferase and eYFP emission signals, respectively. The net bioluminescence resonance energy transfer (BRET) ratio (mBRET) was calculated as follows: mBRET=(BRET^sample−BRET^control)*1000whereBRET=Emission^535nm/Emission^475nm

GPR84 L336A = molecular target: T3, GPR84 L336A (Homo sapiens, UniProt Q9NQS5, L336A); experiment: BRET β-arrestin-2 recruitment assay, HEK293T cells; type: cell-based; settings: for EC50: L336A, read-out: β-arrestin-2 pEC50 ± SEM (converted)
T3 construct: FLAG (N); eYFP (C); expressed in transfected cells; host or cells: HEK293T, transient
Procedure: as §1

GPR84 F187A = molecular target: T4, GPR84 F187A (Homo sapiens, UniProt Q9NQS5, F187A); experiment: BRET β-arrestin-2 recruitment assay, HEK293T cells; type: cell-based; settings: for EC50: F187A, read-out: β-arrestin-2 pEC50 ± SEM (converted)
T4 construct: FLAG (N); eYFP (C); expressed in transfected cells; host or cells: HEK293T, transient
Procedure: as §1

GPR84 N362S = molecular target: T5, GPR84 N362S (Homo sapiens, UniProt Q9NQS5, N362S); experiment: [35S]GTPγS binding assay; type: biochemical; settings: for Emax: read-out: Emax ± SEM
T5 construct: FLAG (N); Gαi2-Cys352Ile (fusion partner) (C); expressed in transfected cells
Procedure: (§2) Membranes were generated from Flp-In™ T-REx™ 293 cells following 100 ng/ml doxycycline treatment to induce receptor expression. Cells were washed with ice-cold phosphate-buffered saline (PBS), removed from dishes by scraping and centrifuged at 1,800 x g for 5 min at 4 °C. Pellets were resuspended in TE buffer (10mM Tris-HCl, 0.1 mM EDTA; pH 7.4) containing a protease inhibitor mixture and homogenized with a 5 ml hand-held homogenizer. Samples were centrifuged at 450 x g for 5 min at 4 °C and the supernatant was further centrifuged at 90,000 x g for 45 min at 4 °C. The resulting pellet was resuspended in TE buffer and protein content was assessed using a BCA protein assay kit.
(§3) Prepared membrane protein (3 μg per well) was incubated in assay buffer (20 mM HEPES, 5 mM MgCl2, 160 mM NaCl, 0.05 % fatty-acid-free bovine serum albumin; pH 7.4) containing the indicated ligand concentrations. The reaction was initiated by addition of [^35S]GTPγS (100 nCi per reaction) with 1 μM GDP, and incubated at 30 °C for 60 min. The reaction was terminated by rapid vacuum filtration through GF/C glassfibre filter-bottom 96-well microplates using a UniFilter FilterMate Harvester (PerkinElmer). Unbound radioligand was removed from filters by three washes with ice-cold PBS. Ultima Gold™ XR was added to dried filters, and [^35S]GTPγS binding quantified by liquid scintillation spectroscopy.

[2] = molecular target: GPR84-WT (GPR84-Gi2α fusion protein) (Homo sapiens, UniProt Q9NQS5); experiment: [35S]GTPγS binding assay; type: biochemical; settings: for Emax: read-out: Emax ± SEM
Procedure: as §2, §3

[3] = molecular target: T6, GPR84 L336A (GPR84-Gi2α fusion protein) (Homo sapiens, UniProt Q9NQS5, L336A); experiment: [35S]GTPγS binding assay; type: biochemical
T6 construct: FLAG (N); Gαi2-Cys352Ile (fusion partner) (C); expressed in transfected cells
Procedure: as §2, §3

GPR84 [4] = molecular target: T1, GPR84; experiment: Competition binding kinetics of [3H]140 (on and off rates of unlabeled ligands); design: expressed in transfected cells; host or cells: membranes; settings: for Kd: read-out: Koff/Kon
Procedure: The kinetic binding parameters of unlabeled ligands were determined through assessment of the binding kinetics of [^3H]140.[21] […] At the indicated time points, membrane protein was added, and tubes were gently agitated. Three different concentrations of competitor were assessed to ensure that the rate parameters calculated were independent of ligand concentration.

GPR84 (wild type) = molecular target: T7, GPR84 (wild type) (Homo sapiens, UniProt Q9NQS5); experiment: Competition binding assay with orthosteric antagonist [3H]140
T7 construct: expressed in transfected cells; host or cells: Flp-In T-REx 293 cells (membranes, doxycycline-induced)
Procedure: Binding was initiated by the addition of 5 μg membrane protein generated from Flp-In™ T-REx™ cells induced to express the receptor construct of interest with 100 ng/ml doxycycline. Nonspecific binding of the radioligand was determined in the presence of 10 μM compound 837. All assays were performed at 25 °C for 1 h before termination by the addition of ice-cold phosphate-buffered saline (PBS) and vacuum filtration through GF/C glassfibre filter-bottom 96-well microplates using a UniFilter FilterMate Harvester (Revvity). Each well was washed three times with ice-cold PBS and filters were allowed to dry for 2–3 h before addition of 50 μl of Ultima Gold™ XR. Radioactivity was quantified by liquid scintillation spectrometry.

[5] = L336A, read-out: pEC50 ± SEM (converted)
[6] = competition with [3H]140, Fig. 1f, read-out: pKi (converted)

T7 sequence (Q9NQS5+P04899 fused P04899:C352I): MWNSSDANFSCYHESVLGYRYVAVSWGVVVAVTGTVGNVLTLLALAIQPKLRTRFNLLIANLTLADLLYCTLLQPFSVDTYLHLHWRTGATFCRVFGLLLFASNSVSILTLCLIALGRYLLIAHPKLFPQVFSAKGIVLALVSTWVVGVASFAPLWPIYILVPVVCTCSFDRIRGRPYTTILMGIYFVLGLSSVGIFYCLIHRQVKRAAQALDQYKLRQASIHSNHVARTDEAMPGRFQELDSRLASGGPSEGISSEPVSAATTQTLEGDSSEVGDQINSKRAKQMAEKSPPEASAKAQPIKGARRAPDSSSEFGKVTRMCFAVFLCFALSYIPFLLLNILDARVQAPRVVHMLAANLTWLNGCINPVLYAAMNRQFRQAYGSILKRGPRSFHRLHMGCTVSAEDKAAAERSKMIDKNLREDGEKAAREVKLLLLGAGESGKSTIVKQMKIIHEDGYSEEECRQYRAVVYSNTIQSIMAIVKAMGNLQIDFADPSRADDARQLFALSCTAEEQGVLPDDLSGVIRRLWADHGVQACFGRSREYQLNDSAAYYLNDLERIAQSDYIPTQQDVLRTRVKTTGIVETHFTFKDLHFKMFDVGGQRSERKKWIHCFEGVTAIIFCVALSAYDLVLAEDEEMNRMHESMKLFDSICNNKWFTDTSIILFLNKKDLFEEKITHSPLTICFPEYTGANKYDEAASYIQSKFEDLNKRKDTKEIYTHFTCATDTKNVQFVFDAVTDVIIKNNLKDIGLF
T4 sequence (Q9NQS5 whole entry F187A): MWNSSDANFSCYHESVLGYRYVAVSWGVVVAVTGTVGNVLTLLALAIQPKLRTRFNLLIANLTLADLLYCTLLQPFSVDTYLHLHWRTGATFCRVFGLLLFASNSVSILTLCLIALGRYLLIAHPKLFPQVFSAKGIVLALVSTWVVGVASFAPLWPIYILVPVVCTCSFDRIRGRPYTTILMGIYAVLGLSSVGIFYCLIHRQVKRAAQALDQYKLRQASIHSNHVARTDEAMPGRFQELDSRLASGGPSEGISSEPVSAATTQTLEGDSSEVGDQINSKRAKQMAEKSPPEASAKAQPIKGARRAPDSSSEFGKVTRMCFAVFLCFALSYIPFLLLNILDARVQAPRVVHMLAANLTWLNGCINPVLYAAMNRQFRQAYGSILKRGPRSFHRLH
T6 sequence (Q9NQS5 whole entry L336A, the tested form may be a part): as the sequence (Q9NQS5 whole entry F187A) above, with A187F, L336A counted along it
T3 sequence (Q9NQS5 whole entry L336A): as the sequence (Q9NQS5 whole entry F187A) above, with A187F, L336A counted along it
Chain of GPR84-WT (GPR84-Gi2α fusion protein) (Q9NQS5 whole entry, the tested form may be a part): as the sequence (Q9NQS5 whole entry F187A) above, with A187F counted along it
Chain of GPR84-WT (GPR84-Gi2α fusion protein) (P04899 with tags, fused parts or gaps C352I partner): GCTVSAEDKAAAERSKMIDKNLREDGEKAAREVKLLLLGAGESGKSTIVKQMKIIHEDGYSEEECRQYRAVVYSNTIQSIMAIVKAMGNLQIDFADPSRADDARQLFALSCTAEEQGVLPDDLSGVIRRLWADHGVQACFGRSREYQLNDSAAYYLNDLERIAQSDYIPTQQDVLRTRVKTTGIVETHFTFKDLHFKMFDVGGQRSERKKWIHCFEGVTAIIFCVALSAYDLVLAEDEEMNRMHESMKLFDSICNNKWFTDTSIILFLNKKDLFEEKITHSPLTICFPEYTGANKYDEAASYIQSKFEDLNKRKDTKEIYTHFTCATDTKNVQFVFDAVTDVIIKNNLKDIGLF
T1 sequence (Q9NQS5 whole entry): as the sequence (Q9NQS5 whole entry F187A) above, with A187F counted along it
T5 sequence (Q9NQS5 whole entry N362S, the tested form may be a part): as the sequence (Q9NQS5 whole entry F187A) above, with A187F, N362S counted along it
T2 sequence (Q9NQS5 whole entry): as the sequence (Q9NQS5 whole entry F187A) above, with A187F counted along it

SMILES | EC50 (GPR84 [1]) | Emax (GPR84 [1]) | EC50 (GPR84-WT) | EC50 (GPR84 L336A) | EC50 (GPR84 F187A) | EC50 (GPR84 N362S; [35S]GTPγS, N362S) | EC50 [3, 5] | Kd (GPR84 [4]; Fig. 1g) | Ki (GPR84 (wild type); [6]) | also measured
Cc1cc(CCCc2cc(O)c[n+]([O-])c2)ccc1Cl [OX04954] | 0.0126 nM | 98 ± 1.8% | 28.2 nM | 1.32 nM | 4.07 nM | 24 nM | 0.0427 nM | 1.83 ± 0.31 nM | 6.76 nM | Emax (GPR84 N362S; [35S]GTPγS, N362S): 124 ± 19%; EC50 ([2]; [35S]GTPγS, GPR84-WT, Extended Data Table 3, read-out: pEC50 ± SEM (converted)): 0.661 nM; Emax ([2]; [35S]GTPγS, GPR84-WT, Extended Data Tables 1 and 5): 129 ± 12%; EC50 ([2]; [35S]GTPγS, GPR84-WT, Extended Data Tables 1 and 5, read-out: pEC50 ± SEM (converted)): 0.661 nM; koff (GPR84 [4]; Fig. 1g, read-out: Koff (converted)): 0.000429 s⁻¹; kon (GPR84 [4]; Fig. 1g, read-out: Kon (converted)): 254000 M⁻¹ s⁻¹
[O-][n+]1cc(O)cc(CCc2ccc(Cl)c(C(F)(F)F)c2)c1 [OX04529] | 0.012 nM | 97 ± 0.2% | 58.9 nM | 1.23 nM | 3.09 nM | 16.6 nM | 0.0692 nM | 1.54 ± 0.2 nM | 10.2 nM | efficacy in promoting interaction with β-arrestin-2 (GPR84 L336A; Leu336Ala GPR84, HEK293T): full agonist; efficacy in promoting interaction with β-arrestin-2 (GPR84 F187A; Phe187Ala GPR84, HEK293T): substantial efficacy; Emax (GPR84 N362S): 126 ± 30%; EC50 ([2]; pEC50 ± SEM, [35S]GTPγS, GPR84-WT, Extended Data Table 3): 1.26 nM; EC50 ([2]; pEC50 ± SEM, [35S]GTPγS, GPR84-WT, Extended Data Tables 1 and 5): 1.17 nM; Emax [2]: 119 ± 13%; fold greater potency than at wild type ([3]; Leu336Ala): more than 10 fold; EC50 ([3]; Leu336Ala, read-out: EC50): ~0.1 nM; koff (GPR84 [4]): 0.000649 s⁻¹; kon (GPR84 [4]): 443000 M⁻¹ s⁻¹; Ki (GPR84 (wild type); GPR84-Gi2 fusion protein stable cell line, Extended Data Fig. 7, read-out: pKi (WT) (converted)): 51.3 nM
